Patent US12012399B2, “Microbiocidal quinoline dihydro-(thiazine)oxazine derivatives” (priority 2018, dated 2024)

How the values were obtained:
[1] = system: Botryotinia fuckeliana (Botrytis cinerea); test: Botryotinia fuckeliana (Botrytis cinerea) / liquid culture (gray mould); assay type: cell-based; conditions: 72 h, compared to untreated control, growth inhibition determined photometrically 3-4 days after application
[2] = system: Glomerella lagenarium (Colletotrichum lagenarium); test: Glomerella lagenarium (Colletotrichum lagenarium) / liquid culture (anthracnose); assay type: cell-based; conditions: Colletotrichum orbiculare, compared to untreated control, growth inhibition measured photometrically 3-4 days after application
[3] = system: Monographella nivalis (Microdochium nivale); test: Monographella nivalis (Microdochium nivale) / liquid culture (foot rot cereals); assay type: cell-based; conditions: compared to untreated control, growth inhibition determined photometrically 4-5 days after application
[4] = system: Magnaporthe grisea (Pyricularia oryzae); test: microbe, parasite or virus in culture; assay type: cell-based; conditions: read-out: control of Magnaporthe grisea
[5] = system: Mycosphaerella graminicola (Septoria tritici); test: Mycosphaerella graminicola (Septoria tritici) / liquid culture (Septoria blotch); assay type: cell-based; conditions: Zymoseptoria tritici, compared to untreated control, growth inhibition determined photometrically 4-5 days after application
Fusarium culmorum = test: microbe, parasite or virus in culture; assay type: cell-based; conditions: read-out: control of Fusarium culmorum
Sclerotinia sclerotiorum = test: microbe, parasite or virus in culture; assay type: cell-based; conditions: read-out: control of Sclerotinia sclerotiorum

| Structure (SMILES) | inhibition of growth at 20 ppm [1] | inhibition of growth at 20 ppm [2] | inhibition of growth at 20 ppm [3] | inhibition of growth at 20 ppm [4] | inhibition of growth at 20 ppm [5] | melting point | inhibition of growth at 20 ppm (Fusarium culmorum) | inhibition of growth at 20 ppm (Sclerotinia sclerotiorum) |
| --- | --- | --- | --- | --- | --- | --- | --- | --- |
| CC1(C)CC(C)(C(F)(F)c2ccccc2)N=C(c2cnc3c(F)cccc3c2)O1 (stereo not shown) [E-14, 4-[difluoro(phenyl)methyl]-2-(8-fluoro-3-quinolyl)-4,6,6-trimethyl-5H-1,3-oxazine] | ≥ 80% | ≥ 80% | ≥ 80% | ≥ 80% | ≥ 70% | 101 to 105 °C |  |  |
| Cc1cccc2cc(C3=NC(Cc4ccccc4)CC(C)(C)O3)cnc12 (stereo not shown) [E-4, 4-benzyl-6,6-dimethyl-2-(8-methyl-3-quinolyl)-4,5-dihydro-1,3-oxazine] | ≥ 80% |  | ≥ 80% |  | ≥ 70% | 120 to 122 °C |  |  |
| CC1(C)CC(Cc2ccccc2)N=C(c2cnc3c(F)c(F)ccc3c2)S1 (stereo not shown) [E-6, 4-benzyl-2-(7,8-difluoro-3-quinolyl)-6,6-dimethyl-4,5-dihydro-1,3-thiazine] | ≥ 80% | ≥ 80% | ≥ 80% |  |  | 153 to 155 °C | ≥ 80% |  |
| Fc1ccc2cc(C3=NC(Cc4ccccc4)CC4(CCCC4)O3)cnc2c1Cl (stereo not shown) [E-35, 9-benzyl-7-(8-chloro-7-fluoro-3-quinolyl)-6-oxa-8-azaspiro[4.5]dec-7-ene] | ≥ 80% |  | ≥ 80% |  | ≥ 70% | 150 to 151 °C |  |  |
| CC1(C)CC(Cc2ccccc2)N=C(c2cnc3c(F)c(F)ccc3c2)O1 (stereo not shown) [E-8, 4-benzyl-2-(7,8-difluoro-3-quinolyl)-6,6-dimethyl-4,5-dihydro-1,3-oxazine] |  | ≥ 80% |  |  |  | 93 to 96 °C |  |  |
| CC1(Cc2ccccc2)CC(C)(C)OC(c2cnc3c(F)cccc3c2)=N1 (stereo not shown) [E-17, 4-benzyl-2-(8-fluoro-3-quinolyl)-4,6,6-trimethyl-5H-1,3-oxazine] | ≥ 80% | ≥ 80% | ≥ 80% | ≥ 80% | ≥ 70% | 115 to 116 °C | ≥ 80% |  |
| CC1(C)CC(Cc2ccccc2)N=C(c2cc3cccc(F)c3nc2F)O1 (stereo not shown) [E-30, 4-benzyl-2-(2,8-difluoro-3-quinolyl)-6,6-dimethyl-4,5-dihydro-1,3-oxazine] | ≥ 80% |  | ≥ 80% | ≥ 80% | ≥ 70% | 105 to 107 °C | ≥ 80% |  |
| CC1(C)CC(Cc2ccccc2)N=C(c2cnc3cc(Cl)ccc3c2)O1 (stereo not shown) [E-33, 4-benzyl-2-(7-chloro-3-quinolyl)-6,6-dimethyl-4,5-dihydro-1,3-oxazine] |  |  | ≥ 80% |  | ≥ 70% |  |  |  |
| CC1(Cc2ccccc2)CC(C)(C)OC(c2cnc3c(F)cccc3c2)=N1 (stereo not shown) [F-2] |  |  |  |  |  | 111 to 112 °C |  | ≥ 80% |
| CC1(C)CC(Cc2ccccc2)(C(F)(F)F)N=C(c2cnc3c(F)cccc3c2)O1 (stereo not shown) [E-12, 4-benzyl-2-(8-fluoro-3-quinolyl)-6,6-dimethyl-4-(trifluoromethyl)-5H-1,3-oxazine] | ≥ 80% | ≥ 80% | ≥ 80% | ≥ 80% |  |  |  |  |
| CC1(C)CC(Cc2ccccc2)N=C(c2cnc3ccccc3c2)O1 (stereo not shown) [E-5, 4-benzyl-6,6-dimethyl-2-(3-quinolyl)-4,5-dihydro-1,3-oxazine] | ≥ 80% | ≥ 80% | ≥ 80% |  | ≥ 70% |  | ≥ 80% |  |
| Fc1ccc2cc(C3=NC(Cc4ccccc4)CC(CI)O3)cnc2c1F (stereo not shown) [E-26, 4-benzyl-2-(7,8-difluoro-3-quinolyl)-6-(iodomethyl)-5,6-dihydro-4H-1,3-oxazine] | ≥ 80% |  |  |  |  | 137 to 139 °C | ≥ 80% |  |
| CC1(Cc2ccccc2)CC(C)(C)SC(c2cnc3c(F)cccc3c2)=N1 (stereo not shown) [E-7, 4-benzyl-2-(8-fluoro-3-quinolyl)-4,6,6-trimethyl-5H-1,3-thiazine] | ≥ 80% | ≥ 80% | ≥ 80% | ≥ 80% | ≥ 70% |  | ≥ 80% | ≥ 80% |
| N#Cc1c(F)ccc2cc(C3=NC(Cc4ccccc4)CC4(CCCC4)O3)cnc12 (stereo not shown) [E-27, 3-(9-benzyl-6-oxa-8-azaspiro[4.5]dec-7-en-7-yl)-7-fluoro-quinoline-8-carbonitrile] | ≥ 80% |  |  |  |  |  |  |  |
| CC1(CCl)CC(Cc2ccccc2)N=C(c2cnc3c(F)c(F)ccc3c2)O1 (stereo not shown) [E-1, 4-benzyl-6-(chloromethyl)-2-(7,8-difluoro-3-quinolyl)-6-methyl-4,5-dihydro-1,3-oxazine] | ≥ 80% |  | ≥ 80% |  | ≥ 70% |  | ≥ 80% |  |
| CC1(C)CC(Cc2ccc(F)cc2)N=C(c2cnc3c(F)c(F)ccc3c2)O1 (stereo not shown) [E-18, 2-(7,8-difluoro-3-quinolyl)-4-[(4-fluorophenyl)methyl]-6,6-dimethyl-4,5-dihydro-1,3-oxazine] | ≥ 80% |  | ≥ 80% | ≥ 80% | ≥ 70% | 118 to 121 °C |  | ≥ 80% |
| CC1(C)CC(Cc2ccccc2)N=C(c2cnc3c(F)c(F)ccc3c2)O1 (stereo not shown) [F-6] |  |  |  |  |  | 102 to 105 °C |  |  |
| CC1(C)CC(Cc2ccccc2)N=C(c2cnc3c(C#N)cccc3c2)O1 (stereo not shown) [E-2, 3-(4-benzyl-6,6-dimethyl-4,5-dihydro-1,3-oxazin-2-yl)quinoline-8-carbonitrile] |  |  | ≥ 80% |  | ≥ 70% |  | ≥ 80% |  |
| CC1(C)CC(Cc2ccccc2)N=C(c2cnc3c(F)c(Cl)ccc3c2)O1 (stereo not shown) [E-29, 4-benzyl-2-(7-chloro-8-fluoro-3-quinolyl)-6,6-dimethyl-4,5-dihydro-1,3-oxazine] |  | ≥ 80% | ≥ 80% |  | ≥ 70% | 135 to 137 °C |  |  |
| CC1(C)CC(Cc2ccccc2)N=C(c2cnc3cc(F)ccc3c2)O1 (stereo not shown) [E-32, 4-benzyl-2-(7-fluoro-3-quinolyl)-6,6-dimethyl-4,5-dihydro-1,3-oxazine] | ≥ 80% |  | ≥ 80% |  | ≥ 70% |  | ≥ 80% |  |
| CC1(C)CC(Cc2ccccc2)N=C(c2cnc3c(C#N)c(F)ccc3c2)O1 (stereo not shown) [E-28, 3-(4-benzyl-6,6-dimethyl-4,5-dihydro-1,3-oxazin-2-yl)-7-fluoro-quinoline-8-carbonitrile] | ≥ 80% |  | ≥ 80% | ≥ 80% |  | 126 to 133 °C |  |  |
| C[C@@]1(Cc2ccccc2)C[C@](C)(CCl)OC(c2cnc3c(F)cccc3c2)=N1 [E-11, (4R,6R)-4-benzyl-6-(chloromethyl)-2-(8-fluoro-3-quinolyl)-4,6-dimethyl-5H-1,3-oxazine] | ≥ 80% | ≥ 80% | ≥ 80% | ≥ 80% | ≥ 70% |  | ≥ 80% |  |
| CC1(Cc2ccccc2)CC(C)(C)OC(c2cnc3c(F)cccc3c2)=N1 (stereo not shown) [F-1] |  |  |  |  |  | 109 to 111 °C |  |  |
| Cc1c(C2=NC(C)(Cc3ccccc3)CC(C)(C)O2)cnc2c(F)cccc12 (stereo not shown) [E-15, 4-benzyl-2-(8-fluoro-4-methyl-3-quinolyl)-4,6,6-trimethyl-5H-1,3-oxazine] | ≥ 80% | ≥ 80% | ≥ 80% | ≥ 80% | ≥ 70% |  |  |  |
| Cc1nc2c(F)cccc2cc1C1=NC(C)(Cc2ccccc2)CC(C)(C)O1 (stereo not shown) [E-16, 4-benzyl-2-(8-fluoro-2-methyl-3-quinolyl)-4,6,6-trimethyl-5H-1,3-oxazine] | ≥ 80% | ≥ 80% | ≥ 80% | ≥ 80% | ≥ 70% |  | ≥ 80% | ≥ 80% |
| CC1(C)CC(Cc2ccccc2)N=C(c2cnc3c(F)c(C#N)ccc3c2)O1 (stereo not shown) [E-34, 3-(4-benzyl-6,6-dimethyl-4,5-dihydro-1,3-oxazin-2-yl)-8-fluoro-quinoline-7-carbonitrile] |  | ≥ 80% | ≥ 80% |  |  |  |  |  |
| CC1CC(Cc2ccccc2)N=C(c2cnc3c(F)c(F)ccc3c2)O1 (single isomer, unassigned) [E-25, 4-benzyl-2-(7,8-difluoro-3-quinolyl)-6-methyl-5,6-dihydro-4H-1,3-oxazine] | ≥ 80% | ≥ 80% | ≥ 80% |  | ≥ 70% |  | ≥ 80% |  |
| CC1(C)CC(Cc2ccccc2)N=C(c2cnc3c(Cl)cccc3c2)O1 (stereo not shown) [E-3, 4-benzyl-2-(8-chloro-3-quinolyl)-6,6-dimethyl-4,5-dihydro-1,3-oxazine] | ≥ 80% |  | ≥ 80% |  | ≥ 70% | 150 to 152 °C |  |  |
| CC1(C)CC(Cc2ccccc2)N=C(c2cc3cccc(F)c3nc2Cl)O1 (stereo not shown) [E-36, 4-benzyl-2-(2-chloro-8-fluoro-3-quinolyl)-6,6-dimethyl-4,5-dihydro-1,3-oxazine] |  |  |  |  | ≥ 70% |  |  |  |
